Experimental data published in patent US8192935B2, “Methods for assessing cisplatin resistance, disease progression, and treatment efficacy in ovarian cancer as related to MetAP2 expression” (The Penn State Research Foundation, priority 2003, dated 2012).

What was measured:
[1] = system: e-IF2Bε (BC013590); assay: siRNA-mediated knockdown of gene expression; format: cell-based, human; settings: ovarian cancer cell lines
[2] = system: OVCAR-3 cells; assay: MTT assay, cis-platin sensitivity with siRNA; format: cell-based, human; settings: OVCAR-3 cells with specific siRNA
[3] = system: WDR1 (AB010427); assay: siRNA-mediated knockdown of gene expression; format: cell-based, human; settings: OVCA 429 cells
[4] = system: OVCA 429 cells; settings: OVCA 429 cells with specific siRNA
[5] = system: MetAP-2 messenger RNA; assay: siRNA knockdown, quantitative real-time PCR; settings: OVCA 429 (FIG. 44)
Experimental: The reaction mixture was then incubated at 42° C. for 60 minutes. cDNA dilutions from 1:4 to 1:256 were prepared. […] Green PCR Master Mix (Qiagen), 0.3 μM of forward primer, 0.3 μM of reverse primer, and RNase free water were added to a final volume of 45 μl.
Sequence detection was determined using the ABI Prism 7700 (Applied Biosystems, Inc., Foster City, Calif.) sequence detection system or the MJ Research (Waltham, Mass.) Opticon II system as follows: PCR initial activation step was carried out for 15 minutes at 95° C.; samples were denatured for 15 seconds at 94° C., annealed for 30 seconds at 53° C. (55° C. when the Opticon II system was used), and extended for 30 seconds at 72° C. (data was acquired during this step); the PCR reaction was repeated for 50 cycles. A melting curve analysis was prepared by adding on the following steps: 15 seconds at 95° C., 20 seconds at 60° C., and 20 seconds at 95° C.
The siRNA experiments described herein were conducted using the siPORT Lipid protocol (Ambion). […]
Cells were transfected with the siRNA constructs following instruction from the supplier (Ambion). […] The OD260 readings of siRNA were performed in duplicate at a 1:100 dilution. The readings were averaged, then multiplied by the dilution factor and then by multiplied by 40 (the OD260of 1 is equal to 40 μg/ml of RNA) to get the final concentration of siRNA in μg/ml. […]

[6] = system: S100A11 message; assay: siRNA knockdown of gene expression; format: cell-based, human; settings: OVCA 429 (FIG. 57)

eIF2Bε siRNA #3: siRNA to e-IF2Bε; target sequence AATCAACAGCTGCAGAGGTTC (guide AATCAACAGCTGCAGAGGTTC; target site or template, no part of the molecule; listed as DNA, chemistry not given here; listed as Homo Sapiens)
reduction in the level of e-IF2Bε mRNA [1]: 43%

WDR1 siRNA #1: siRNA to WDR1; target sequence AATGGAAAGTGCGTCATCCTA (guide AATGGAAAGTGCGTCATCCTA; target site or template, no part of the molecule; listed as DNA, chemistry not given here; listed as Homo Sapiens)
OVCAR-3: increased sensitivity to cis-platin [2]: yes
reduction of WDR1 mRNA levels compared to control [3]: approximately 85%
429: increased sensitivity to cis-platin [4]: no

eIF2Bε siRNA #1: siRNA to e-IF2Bε; target sequence AATGTGGTTCGAATAATTACA (guide AATGTGGTTCGAATAATTACA; target site or template, no part of the molecule; listed as DNA, chemistry not given here; listed as Homo Sapiens)
OVCAR-3: increased sensitivity to cis-platin [2]: yes
reduction in the level of e-IF2Bε mRNA [1]: 57%
429: increased sensitivity to cis-platin [4]: yes

WDR1 siRNA #3: siRNA to WDR1; target sequence AAGTGCTTCAGCATCGACAAC (guide AAGTGCTTCAGCATCGACAAC; target site or template, no part of the molecule; listed as DNA, chemistry not given here; listed as Homo Sapiens)
reduction of WDR1 mRNA levels compared to control [3]: approximately 70%

MetAP-2 siRNA #2: siRNA to MetAP-2; target sequence AAGCA CAT CGA CAA GTT AGA A (guide AAGCACATCGACAAGTTAGAA; target site or template, no part of the molecule; listed as DNA, chemistry not given here; listed as Homo Sapiens)
levels of MetAP-2 expression [5]: did not result in a reduction

S100A11 siRNA #1: siRNA to S100A11; AA AGG ATG GTT ATA ACT ACA C (guide AAAGGATGGTTATAACTACAC; target site or template, no part of the molecule; listed as DNA, chemistry not given here; listed as Homo Sapiens)
knockdown of S100A11 gene expression levels [6]: 50%

WDR1 siRNA #2: siRNA to WDR1; target sequence AAGTTCACAATTGGCGACCAC (guide AAGTTCACAATTGGCGACCAC; target site or template, no part of the molecule; listed as DNA, chemistry not given here; listed as Homo Sapiens)
reduction of WDR1 mRNA levels compared to control [3]: approximately 75%

S100A11 siRNA #2: siRNA to S100A11; AA GAA ACT GGA CAC CAA CAG T (guide AAGAAACTGGACACCAACAGT; target site or template, no part of the molecule; listed as DNA, chemistry not given here; listed as Homo Sapiens)
knockdown of S100A11 gene expression levels [6]: 25%

eIF2Bε siRNA #2: siRNA to e-IF2Bε; target sequence AAACTCGAGATGACTTTGTGC (guide AAACTCGAGATGACTTTGTGC; target site or template, no part of the molecule; listed as DNA, chemistry not given here; listed as Homo Sapiens)
reduction in the level of e-IF2Bε mRNA [1]: 54%

MetAP-2 siRNA #3: siRNA to MetAP-2; target sequence AAACA GTG CCG ATT GTG AAA G (guide AAACAGTGCCGATTGTGAAAG; target site or template, no part of the molecule; listed as DNA, chemistry not given here; listed as Homo Sapiens)
levels of MetAP-2 expression [5]: did not result in a reduction
